Drawing on ChEMBL document CHEMBL4482308, “Ghrelin o-acyltransferase inhibitors” (2017), this text covers inhibition and CC50 for 3 molecules.

Molecules are shown by their SMILES. Activity calls are given as the source filed them. No cut-off for these calls is given here.

Series [1] concerns the target T1, Membrane-bound ghrelin O-acyltransferase MBOAT4 (Mus musculus) (UniProt P0C7A3).
T1 sequence (whole entry): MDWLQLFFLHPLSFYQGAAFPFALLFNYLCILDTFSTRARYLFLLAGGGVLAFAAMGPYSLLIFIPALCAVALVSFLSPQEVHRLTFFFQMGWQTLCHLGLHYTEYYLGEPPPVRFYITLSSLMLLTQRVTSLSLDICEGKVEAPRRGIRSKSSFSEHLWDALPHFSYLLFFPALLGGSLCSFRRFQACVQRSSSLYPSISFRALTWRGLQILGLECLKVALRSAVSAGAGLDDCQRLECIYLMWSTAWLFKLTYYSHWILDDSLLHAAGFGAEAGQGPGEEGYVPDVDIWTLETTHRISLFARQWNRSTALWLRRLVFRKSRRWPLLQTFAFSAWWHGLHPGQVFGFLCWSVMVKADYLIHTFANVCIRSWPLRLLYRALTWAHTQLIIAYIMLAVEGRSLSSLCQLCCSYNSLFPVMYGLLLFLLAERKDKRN
The experiment in a line: Inhibition of mouse GOAT expressed in HEK293FT cells co-expressing pre-proghrelin assessed as reduction in ghrelin octanoylation up to 1 uM incubated for 24 hrs by ELISA. Format: cell-based.

The nature of series [2]: Cytotoxicity in HEK293FT cells co-expressing mouse GOAT and pre-proghrelin assessed as reduction in cell viability incubated for 24 hrs by alamar blue assay. To be noted: human, read-out: LD50. Format: cell-based.

Consider `CC1(C)CC[C@]2(C(=O)O)CC[C@]3(C)[C@H](C(=O)C=C4[C@@]5(C)C=C(C#N)C(=O)C(C)(C)[C@@H]5CC[C@]43C)[C@@H]2C1`, for which, in series [1], the inhibition result is “inactive”.

For the molecule `CCNC(=O)[C@]12CCC(C)(C)C[C@H]1[C@H]1C(=O)C=C3[C@@]4(C)C=C(C#N)C(=O)C(C)(C)[C@@H]4CC[C@@]3(C)[C@]1(C)CC2`, the CC50 at 24 h in series [2] is ≥ 10 µM.

With `COC(=O)[C@]12CCC(C)(C)C[C@H]1[C@H]1C(=O)C=C3[C@@]4(C)C=C(C#N)C(=O)C(C)(C)[C@@H]4CC[C@@]3(C)[C@]1(C)CC2` [BARDOXOLONE METHYL], the CC50 at 24 h in series [2] is ≥ 10 µM.
